Reference: patent publication US5236918A, “6-aryl-3-cyanaminopyridazines, their preparation and use and medicaments containing them” (BYK Gulden Lomberg Chemische Fabrik GmbH, priority 1989, dated 1993)

How the values were obtained:
[1] = test system: tracheal ring chain of the guinea-pig; experiment: bronchospasmolytic action on the tracheal ring chain of the guinea-pig in vitro (relaxation of stable tonic spontaneous contraction); type: cell-based; conditions: for EC50: Cavia porcellus, EC50 in mol/l, 50% of the maximum relaxation achievable with (-)isoprenaline 10^-6 mol/l, spontaneous contraction, 37° C.; for [EC50]theophylline / [EC50]substance: quotient of EC50 values, theophylline = 1
Description: The bronchospasmolytic action of the compounds on the tracheal ring chain of the guinea-pig was tested in vitro as follows: Four parallel tracheal ring chains, each consisting of 6 individual rings, of the guinea-pig (female and male, 430-600 g), in an organ bath [5 ml, Krebs-Henseleit solution with addition of phentolamine (10^-5 mol/l), 37° C., pretension of the organs 2 g, gassing with carbogen] develop a stable, tonic spontaneous contraction after about 20 to 30 minutes. Relaxation can be brought about on these permanently contracted organs under isometric measurement conditions by application of the test substance in a cumulatively semi-logarithmically increasing concentration (e.g. 1×10^-6 +2×10^-6 +7×10^-6 +2×10^-5etc. mol/l), a constant relaxation response being awaited after each individual dose of the test substance before the next higher concentration is applied. A complete dose/effect curve of the test substance is thus obtained over a period of 20 to 30 minutes. The particular relaxation is expressed as the percentage fraction of the maximum relaxation which can be achieved by addition of (-)isoprenaline (10^-6 mol/l).

PDE IV [2] = experiment: inhibition of PDE IV from the canine trachea; type: biochemical; conditions: for [IC50]theophylline / [IC50]substance: PDE IV canine trachea, quotient of IC50 values, theophylline = 1; for -log[IC50] PDE IV canine trachea: cAMP 0.5 μmol/l, 37° C., 20 minutes
From the text: (§1) The inhibition of phosphodiesterases of classes III (PDE III=high-affinity cAMP-PDE which can be inhibited by cGMP) and IV (PDE IV=high-affinity cAMP-PDE which cannot be inhibited by cGMP, Rolipram-sensitive) is regarded as being particularly conclusive for a bronchospasmolytic and/or antiinflammatory action which may be expected [H. Hidaka et al., Adv. Cycl. Nucl. Res. 13, 145 (1984); Tips 5, 237 (1984); R. Weishaar et al., J. Med. Chem. 28, 537 (1985); S. A. Harrison et al., Molec. Pharmac. 29, 506 (1986); J. Klein-Tebbe et al., Allergologie 12, 12 (1989); C. Schudt et al., Allergologie 12, 12 (1989)].
(§2) The PDE inhibition of the compounds according to the invention was therefore determined on a PDE III isolated from human platelets and PDE IV isolated from human neutrophilic polymorphonuclear cells (PMNs) and from the canine trachea. The phosphodiesterases III and IV are isolated by chromatography by the method of Polson et al., Biochem. Pharmacol. 31, 3403-3406 (1982).
(§3) The substances are dissolved in DMSO and diluted further. From a series of solutions diluted up to a hundred-fold, 2.1 μl portions are taken and 212 μl reaction mixture are added. The reaction mixture contains Hepes (100 mmol/l), DTE (5 mmol/l), MgCl2 (5 mmol/l), CaCl2 (10 μmol/l), BSA fraction V 0.5 mg/ml, cAMP 0.5 μmol/l, 2,8-^3 H-cAMP 250,000 cpm/ml (0.3 μCi/ml, s.a. 33.5 μCi/mmol) and SV (snake venom) (25 μg/212 μl test batch).
(§4) The reaction is started by addition of 10 μl PDE to the reaction mixture and to the substance batch. The mixtures are then incubated at 37° C. for 20 minutes. The reaction is stopped by heating at 95° C. for 45 seconds. After the samples have cooled, the SV solution is added, the 5-AMP formed being cleaved. After incubation for 30 minutes at 37° C., this reaction is stopped by addition of 1 ml anion exchanger suspension. The cAMP which remains is thereby bonded. The adenosine formed remains in the supernatant after centrifugation and can be measured in an aliquot by the radioactivity contained therein.

PDE III = molecular target: T1, PDE III (Homo sapiens, UniProt Q14432); experiment: inhibition of PDE III isolated from human platelets; type: biochemical; conditions: for [IC50]theophylline / [IC50]substance: PDE III, quotient of IC50 values, theophylline = 1; for IC50: human platelets, cAMP 0.5 μmol/l, 37° C., 20 minutes, read-out: -log[IC50] PDE III (converted)
T1 construct: PDE III isolated from human platelets; from tissue; host or cells: human platelets
T1 sequence (Q14432 whole entry): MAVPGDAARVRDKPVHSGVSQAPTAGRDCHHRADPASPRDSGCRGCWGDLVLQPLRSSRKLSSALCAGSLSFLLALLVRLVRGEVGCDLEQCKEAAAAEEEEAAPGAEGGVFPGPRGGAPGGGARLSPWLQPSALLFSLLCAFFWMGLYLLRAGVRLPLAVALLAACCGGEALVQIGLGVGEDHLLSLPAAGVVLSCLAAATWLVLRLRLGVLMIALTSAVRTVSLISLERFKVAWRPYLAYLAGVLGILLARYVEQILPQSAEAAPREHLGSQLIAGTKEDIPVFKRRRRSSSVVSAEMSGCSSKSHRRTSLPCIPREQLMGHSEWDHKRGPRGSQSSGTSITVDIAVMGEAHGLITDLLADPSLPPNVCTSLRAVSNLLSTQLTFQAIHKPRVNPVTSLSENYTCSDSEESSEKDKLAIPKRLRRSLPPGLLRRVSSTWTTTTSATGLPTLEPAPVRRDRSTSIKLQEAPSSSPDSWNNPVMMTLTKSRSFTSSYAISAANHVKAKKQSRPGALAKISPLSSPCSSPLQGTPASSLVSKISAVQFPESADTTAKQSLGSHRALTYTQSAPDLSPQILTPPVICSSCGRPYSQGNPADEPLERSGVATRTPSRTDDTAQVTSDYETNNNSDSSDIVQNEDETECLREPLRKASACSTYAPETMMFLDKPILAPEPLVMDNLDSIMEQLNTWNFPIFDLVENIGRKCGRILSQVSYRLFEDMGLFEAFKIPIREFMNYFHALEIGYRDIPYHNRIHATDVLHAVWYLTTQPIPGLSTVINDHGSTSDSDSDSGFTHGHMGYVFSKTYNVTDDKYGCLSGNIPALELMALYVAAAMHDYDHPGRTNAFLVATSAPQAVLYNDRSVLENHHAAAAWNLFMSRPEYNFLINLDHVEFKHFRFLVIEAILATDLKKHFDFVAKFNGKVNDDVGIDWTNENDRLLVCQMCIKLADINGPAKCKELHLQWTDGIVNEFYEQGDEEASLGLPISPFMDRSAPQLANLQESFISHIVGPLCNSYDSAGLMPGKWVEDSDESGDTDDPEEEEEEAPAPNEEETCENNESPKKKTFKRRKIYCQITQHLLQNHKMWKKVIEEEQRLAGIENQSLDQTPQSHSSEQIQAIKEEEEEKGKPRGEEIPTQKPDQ
From the text: as §1, §2, §3, §4

PDE IV [3] = experiment: inhibition of PDE IV from human neutrophilic polymorphonuclear cells (PMNs); type: biochemical; conditions: for [IC50]theophylline / [IC50]substance: PDE IV human PMNs, quotient of IC50 values, theophylline = 1; for -log[IC50] PDE IV PNMs: human neutrophilic polymorphonuclear cells, cAMP 0.5 μmol/l, 37° C., 20 minutes
From the text: as §1, §2, §3, §4

| Structure (SMILES) | EC50 [1] | [EC50]theophylline / [EC50]substance [1] | [IC50]theophylline / [IC50]substance (PDE IV [2]) | -log[IC50] PDE IV canine trachea (PDE IV [2]) | [IC50]theophylline / [IC50]substance (PDE III) | IC50 (PDE III) | [IC50]theophylline / [IC50]substance (PDE IV [3]) | -log[IC50] PDE IV PNMs (PDE IV [3]) |
| --- | --- | --- | --- | --- | --- | --- | --- | --- |
| CCCOc1ccc(-c2ccc(NC#N)nn2)cc1OC [Compound 1, 3-Cyanamino-6-(3-methoxy-4-n-propoxyphenyl)pyridazine] | 5.62 µM | 24.0 |  |  |  |  |  |  |
| CCOc1cc(-c2ccc(NC#N)nn2)ccc1OC [Compound 2, 3-Cyanamino-6-(3-ethoxy-4-methoxyphenyl)pyridazine] | 3.02 µM | 44.7 | 95.6 | 5.79 | 15.5 | 10.5 µM |  |  |
| COc1cc(-c2ccc(NC#N)nn2)ccc1OCC(C)C [Compound 5, 3-Cyanamino-6-[3-methoxy-4-(2-methylpropoxy)phenyl]pyridazine] | 3.55 µM | 38.1 |  |  |  |  |  |  |
| COc1cc(-c2ccc(NC#N)nn2)ccc1OC(C)C [Compound 6, 3-Cyanamino-6-[3-methoxy-4-(1-methylethoxy)phenyl]pyridazine] | 8.13 µM | 16.6 |  |  | 25.7 | 6.31 µM |  |  |
| CCOc1ccc(-c2ccc(NC#N)nn2)cc1OC [Compound 7, 3-Cyanamino-6-(4-ethoxy-3-methoxyphenyl)pyridazine] | 6.46 µM | 20.9 | 32.4 | 5.32 | 18.2 | 8.91 µM |  |  |
| COc1cc(-c2ccc(NC#N)nn2)ccc1OC(F)F [Compound 8, 3-Cyanamino-6-(4-difluoromethoxy-3-methoxyphenyl)pyridazine] | 1.86 µM | 72.5 | 70.8 | 5.66 |  |  |  |  |
| COc1ccc(-c2ccc(NC#N)nn2)cc1OC(F)F [Compound 9, 3-Cyanamino-6-(3-difluoromethoxy-4-methoxyphenyl)pyridazine] | 2.34 µM | 57.6 | 69.2 | 5.65 | 13.2 | 12.3 µM |  |  |
| COc1ccc(-c2ccc(NC#N)nn2)cc1OC1CCCC1 [Compound 11, 3-Cyanamino-6-(3-cyclopentyloxy-4-methoxyphenyl)pyridazine] | 0.562 µM | 240 | 120 | 5.89 |  |  | 288 | 6.22 |
| CCOc1ccc(-c2ccc(NC#N)nn2)cc1OC(F)F [Compound 14, 3-Cyanamino-6-(3-difluoromethoxy-4-ethoxyphenyl)pyridazine] | 2.04 µM | 66.1 |  |  |  |  | 85.1 | 5.69 |
| COc1ccc(-c2ccc(NC#N)nn2)cc1OCC1CCC1 [Compound 15, 3-Cyanamino-6-(3-cyclobutylmethoxy-4-methoxyphenyl)pyridazine] | 0.912 µM | 148 | 77.7 | 5.70 |  |  |  |  |
| N#CNc1ccc(-c2ccc(OC(F)F)c(OC3CCCC3)c2)nn1 [Compound 17, 3-Cyanamino-6-(3-cyclopentyloxy-4-difluoromethoxyphenyl)pyridazine] | 0.759 µM | 178 |  |  |  |  | 513 | 6.47 |
| CC(C)COc1cc(-c2ccc(NC#N)nn2)ccc1OC(F)F [Compound 19, 3-Cyanamino-6-[4-difluoromethoxy-3-(2-methylpropoxy)phenyl]pyridazine] | 1.41 µM | 95.6 |  |  |  |  | 525 | 6.48 |
| N#CNc1ccc(-c2ccc(OCC3CC3)c(OC(F)F)c2)nn1 [Compound 21, 3-Cyanamino-6-(4-cyclopropylmethoxy-3-difluoromethoxyphenyl)pyridazine] | 1 µM | 135 |  |  |  |  |  |  |
